Each compound was assayed against TNFα (Homo sapiens, UniProt P01375) (assay: HEK-Blue hTNFα reporter assay). Settings: HEK-Blue hTNFα reporter cells, SEAP readout; read-out: IC50 Range.
Assay type: cell-based
Set-up: purchased R&D biosystem (R&D Systems) 210-TA-020/CF
Description: Stimulation of HEK293 cells by TNFα leads to activation of the NF-κB pathway. The potency of compounds was examined in HEK-Blue™ hTNFα reporter cells (Invivogen, Cat #hkb-tnfdmyd). HEK-Blue™ TNFα cells were generated by stable transfection of HEK293 cell line with a SEAP reporter gene under the control of the […] minimal promoter fused to NF-κB binding sites. Stimulation of HEK-Blue™ TNFα cells with TNFα triggers the activation of the NF-κB-inducible promoter and the production of SEAP. Levels of SEAP in the supernatant can be easily determined using QUANTI-Blue™ Solution (Invivogen, cat #rep-qbs) by reading the OD at 620-655 nm.
HEK-Blue™ TNFα cells were cultured in DMEM supplemented with 10% FBS, 100p/mL penicillin, 100 μg/mL streptomycin, 100 μg/mL normocin, 1 μg/mL puromycin, and 100 μg/mL zeocin. The culture was maintained in culture incubator with 5% CO2 at 37° C. When used for assay, the cells were gently rinsed twice with pre-warmed phosphate buffered saline (PBS) and detached in presence of PBS by tapping the flask or by using a cell scraper. The cells were spun to remove PBS and resuspended in fresh, pre-warmed test medium (DMEM supplemented with 10% FBS, 100p/mL penicillin, and 100 μg/mL streptomycin). A serial dilution of work solution of tested compound was made in DMSO with 1000× of final concentration, and 40 nL of compound DMSO solution was transferred into 384-well plates (Corning 3764) by Echo, and incubated with 10 μL of recombinant hTNFα (R&D biosystem, Cat #210-TA-020/CF) for 1 h at 37° C. The compound/hTNFα mixture well received 30 μL HEK-Blue™ TNFα cell suspension at 10000 cells/well, and then incubated at 37° C. with 5% CO2 for 24 h. The final concentration of hTNFα is […]. After incubation, 5 μL of induced cell supernatant was transferred to a new 384-well plate well (Coring 3764) to mix with 45 μL of QUANTI-Blue Solution. After 1 h incubation at 37° C., the plate was read using a spectrophotometer at 620 nm.
The percentage of inhibition was calculated by the following formula: % inhibition=(positive control−Sample)/(positive control−negative control)*100 • Positive control: OD620 reading of cells with hTNFα stimulation. • Negative control: OD620 reading of cells without hTNFα stimulation. • Sample: OD620 reading of cells with compound at specific concentration and hTNFα stimulation
The % inhibition was plotted against compound concentration in logarithmic scale and the IC50 was rendered using 4-parameter nonlinear regression (GraphPad Prism).

TNFα, sequence (P01375 77-233 limits assumed): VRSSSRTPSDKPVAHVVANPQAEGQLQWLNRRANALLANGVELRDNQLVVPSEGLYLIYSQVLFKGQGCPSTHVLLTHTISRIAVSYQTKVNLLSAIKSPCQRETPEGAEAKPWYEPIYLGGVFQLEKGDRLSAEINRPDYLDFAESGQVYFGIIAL

Compound | IC50 [µM]
CN1C(=O)c2cccc(OC(F)F)c2[C@H]2C[C@@H]1c1nn3ccc(-c4cnc(C5(O)CC(F)(F)C5)nc4)cc3c12 [Example 66] | < 0.025
CN1C(=O)c2cccc(OC(F)F)c2[C@H]2C[C@@H]1c1nn3ccc(-c4ccc(S(=N)(=O)C5CC5)nc4)cc3c12 (some centres unmarked) [Example 68] | < 0.025
CN1C(=O)c2cccc(OC(F)F)c2[C@H]2C[C@@H]1c1nn3ccc(-c4cnc(C5(O)CCC(F)(F)CC5)nc4)cc3c12 [Example 72] | < 0.025
CN1C(=O)c2cccc(OC(F)F)c2[C@H]2C[C@@H]1c1nn3ccc(-c4cnc([C@@](C)(O)C(F)F)nc4)cc3c12 [Example 73] | < 0.025
CN1C(=O)c2cccc(OC(F)F)c2[C@H]2C[C@@H]1c1nn3ccc(-c4cnc([C@](C)(O)CC#N)nc4)cc3c12 [Example 75] | < 0.025
CN1C(=O)c2cccc(OC(F)F)c2[C@H]2C[C@@H]1c1nn3ccc(-c4cnc([C@](C)(O)C5CC5)nc4)cc3c12 [Example 81] | < 0.025
CN1C(=O)c2cccc(OC(F)F)c2[C@H]2C[C@@H]1c1nn3ccc(-c4cnc([C@@](C)(O)CO)nc4)cc3c12 [Example 84] | < 0.025
CN1C(=O)c2cccc(OC(F)F)c2[C@H]2C[C@@H]1c1nn3ccc(-c4cnc([C@](C)(O)C5COC5)nc4)cc3c12 [Example 86] | < 0.025
CN1C(=O)c2cccc(OC(F)F)c2[C@H]2C[C@@H]1c1nn3ccc(-c4cnc(P(C)(C)=O)cn4)cc3c12 [Example 87] | < 0.025
[2H]C([2H])([2H])N1C(=O)c2cccc(OC(F)F)c2[C@H]2C[C@@H]1c1nn3ccc(-c4cnc([C@](C)(O)CC#N)nc4)cc3c12 [Example 90] | < 0.025
C[C@@H](O)c1ncc(-c2ccn3nc4c(c3c2)[C@@H]2C[C@H]4N(C)C(=O)c3cccc(OC(F)F)c32)cn1 [Example 94] | < 0.025
[2H]C([2H])([2H])N1C(=O)c2cccc(OC(F)F)c2[C@H]2C[C@@H]1c1nn3ccc(-c4cnc([C@@](O)(CC#N)C(F)F)nc4)cc3c12 [Example 97] | < 0.025
CN1C(=O)c2cccc(OC(F)F)c2[C@H]2C[C@@H]1c1nn3cc(F)c(-c4cnc(C5(O)COC5)nc4)cc3c12 [Example 98] | < 0.025
CN1C(=O)c2cccc(OC(F)F)c2[C@H]2C[C@@H]1c1nn3ccc(-c4cnc(C5(N)CC(F)(F)C5)nc4)cc3c12 [Example 99] | < 0.025
CN1C(=O)c2cccc(OC(F)F)c2[C@H]2C[C@@H]1c1nn3ccc(-c4cnc([C@H](N)C5CC5)nc4)cc3c12 [Example 103] | < 0.025
CN1C(=O)c2cccc(OC(F)F)c2[C@H]2C[C@@H]1c1nn3ccc(-c4cnc([C@@H](N)C5CC5)nc4)cc3c12 [Example 104] | < 0.025
CN1C(=O)c2cccc(OC(F)F)c2[C@H]2C[C@@H]1c1nn3ccc(-c4ncc([C@@H](O)C5COC5)cn4)cc3c12 [Example 107] | < 0.025
CN1C(=O)c2cccc(OC(F)F)c2[C@H]2C[C@@H]1c1nn3ccc(-c4ncc([C@H](O)C5COC5)cn4)cc3c12 [Example 108] | < 0.025
CN1C(=O)c2cccc(OC(F)F)c2[C@H]2C[C@@H]1c1nn3cc(F)c(-c4cnc([C@]5(O)C[C@@](C)(O)C5)nc4)cc3c12 [Example 109] | < 0.025
[2H]C([2H])([2H])N1C(=O)c2cccc(OC(F)F)c2[C@H]2C[C@@H]1c1nn3cc(F)c(-c4ccc(P(C)(C)=O)nc4)cc3c12 [Example 113] | < 0.025
CN1C(=O)c2cccc(OC(F)F)c2[C@H]2C[C@@H]1c1nn3cc(F)c(-c4cnc([C@](C)(O)CO)nc4)cc3c12 [Example 114] | < 0.025

Now from value to compound:

IC50 [µM] | Compound
< 0.025 | CN1C(=O)c2cccc(OC(F)F)c2[C@H]2C[C@@H]1c1nn3ccc(-c4cnc(C5(O)CCOCC5)nc4)cc3c12 [Example 65]
< 0.025 | CN1C(=O)c2cccc(OC(F)F)c2[C@H]2C[C@@H]1c1nn3ccc(-c4cnc(OCP(C)(C)=O)nc4)cc3c12 [Example 67]
< 0.025 | CN1C(=O)c2cccc(OC(F)F)c2[C@H]2C[C@@H]1c1nn3ccc(-c4ccnc(OCP(C)(C)=O)c4)cc3c12 [Example 70]
< 0.025 | CN1C(=O)c2cccc(OC(F)F)c2[C@H]2C[C@@H]1c1nn3ccc(-c4cnc(C5(O)CCC5)nc4)cc3c12 [Example 71]
< 0.025 | CN1C(=O)c2cccc(OC(F)F)c2[C@H]2C[C@@H]1c1nn3ccc(-c4cnc([C@](C)(O)C(F)F)nc4)cc3c12 [Example 74]
< 0.025 | CN1C(=O)c2cccc(OC(F)F)c2[C@H]2C[C@@H]1c1nn3ccc(-c4cnc([C@@](C)(O)CC#N)nc4)cc3c12 [Example 76]
< 0.025 | CN1C(=O)c2cccc(OC(F)F)c2[C@H]2C[C@@H]1c1nn3ccc(-c4cnc(C5(O)COC5)nc4)cc3c12 [Example 77]
< 0.025 | CN1C(=O)c2cccc(OC(F)F)c2[C@H]2C[C@@H]1c1nn3ccc(-c4cnc([C@](O)(CC#N)C(F)F)nc4)cc3c12 [Example 78]
< 0.025 | CN1C(=O)c2cccc(OC(F)F)c2[C@H]2C[C@@H]1c1nn3ccc(-c4cnc([C@@](O)(CC#N)C(F)F)nc4)cc3c12 [Example 79]
< 0.025 | CN1C(=O)c2cccc(OC(F)F)c2[C@H]2C[C@@H]1c1nn3ccc(-c4cnc([C@@](C)(O)C5CC5)nc4)cc3c12 [Example 80]
< 0.025 | CN1C(=O)c2cccc(OC(F)F)c2[C@H]2C[C@@H]1c1nn3ccc(-c4cnc([C@]5(O)C[C@@H](O)C5)nc4)cc3c12 [Example 82]
< 0.025 | CN1C(=O)c2cccc(OC(F)F)c2[C@H]2C[C@@H]1c1nn3ccc(-c4cnc([C@](C)(O)CO)nc4)cc3c12 [Example 83]
< 0.025 | CN1C(=O)c2cccc(OC(F)F)c2[C@H]2C[C@@H]1c1nn3ccc(-c4cnc([C@@](C)(O)C5COC5)nc4)cc3c12 [Example 85]
< 0.025 | CN1C(=O)c2cccc(OC(F)F)c2[C@H]2C[C@@H]1c1nn3ccc(-c4cnc([C@]5(N)C[C@@](C)(C(=O)O)C5)nc4)cc3c12 [Example 88]
< 0.025 | [2H]C([2H])([2H])N1C(=O)c2cccc(OC(F)F)c2[C@H]2C[C@@H]1c1nn3ccc(-c4cnc([C@@](C)(O)CC#N)nc4)cc3c12 [Example 89]
< 0.025 | CN1C(=O)c2cccc(OC(F)F)c2[C@H]2C[C@@H]1c1nn3ccc(-c4cnc([C@]5(O)C[C@](O)(C(F)F)C5)nc4)cc3c12 [Example 91]
0.025 to 0.1 | CN1C(=O)c2cccc(OC(F)F)c2[C@H]2C[C@@H]1c1nn3ccc(-c4cnc(S(=N)(=O)C5CC5)nc4)cc3c12 (some centres unmarked) [Example 92]
< 0.025 | C[C@H](O)c1ncc(-c2ccn3nc4c(c3c2)[C@@H]2C[C@H]4N(C)C(=O)c3cccc(OC(F)F)c32)cn1 [Example 93]
< 0.025 | CN1C(=O)c2cccc(OC(F)F)c2[C@H]2C[C@@H]1c1nn3ccc(-c4cnc(C(O)(CF)CF)nc4)cc3c12 [Example 95]
< 0.025 | [2H]C([2H])([2H])N1C(=O)c2cccc(OC(F)F)c2[C@H]2C[C@@H]1c1nn3ccc(-c4cnc([C@](O)(CC#N)C(F)F)nc4)cc3c12 [Example 96]
< 0.025 | CN1C(=O)c2cccc(OC(F)F)c2[C@H]2C[C@@H]1c1nn3ccc(-c4ccc(P(C)(C)=O)nn4)cc3c12 [Example 100]
< 0.025 | CN1C(=O)c2cccc(OC(F)F)c2[C@H]2C[C@@H]1c1nn3ccc(-c4cnc([C@]5(O)CC[C@@H](O)C5)nc4)cc3c12 [Example 101]
< 0.025 | CN1C(=O)c2cccc(OC(F)F)c2[C@H]2C[C@@H]1c1nn3ccc(-c4cnc([C@@]5(O)CC[C@H](O)C5)nc4)cc3c12 [Example 102]
< 0.025 | CN1C(=O)c2cccc(OC(F)F)c2[C@H]2C[C@@H]1c1nn3ccc(-c4cnc([C@H](O)C(F)F)nc4)cc3c12 [Example 105]
< 0.025 | CN1C(=O)c2cccc(OC(F)F)c2[C@H]2C[C@@H]1c1nn3ccc(-c4cnc([C@@H](O)C(F)F)nc4)cc3c12 [Example 106]
< 0.025 | CN1C(=O)c2cccc(OC(F)F)c2[C@H]2C[C@@H]1c1nn3ccc(-c4cnc([C@]5(O)CC[C@H](O)C5)nc4)cc3c12 [Example 111]
< 0.025 | CN1C(=O)c2cccc(OC(F)F)c2[C@H]2C[C@@H]1c1nn3ccc(-c4cnc([C@@]5(O)CC[C@@H](O)C5)nc4)cc3c12 [Example 112]

Same assay, conditions: HEK-Blue hTNFα reporter cells; read-out: TNFα reporter, Emax

Emax [%] | Compound
90 | CN1C(=O)c2cccc(OC(F)F)c2[C@H]2C[C@@H]1c1nn3ccc(-c4cnc(C5(O)CCOCC5)nc4)cc3c12 [Example 65]

Same assay, conditions: HEK-Blue hTNFα reporter cells; read-out: TNFα reporter, IC50

IC50 [µM] | Compound
0.0031 | CN1C(=O)c2cccc(OC(F)F)c2[C@H]2C[C@@H]1c1nn3ccc(-c4cnc(C5(O)CCOCC5)nc4)cc3c12 [Example 65]
